The text below walks through data of publication PMC7505949, “Structure-Guided Designing and Evaluation of Peptides Targeting Bacterial Transcription” (Frontiers in Bioengineering and Biotechnology, 2020).

Each structure is given as a SMILES string. Peptide text beside a SMILES is read from it.

Series [1] can be described thus: Storage stability in water by LC-MS. It counts as physicochemical. The conditions noted are these: stored for over a year at 4°C, LC-MS (C18), observed vs calculated molecular weight. On the procedure: The stability of all the designed peptides was analyzed using Liquid chromatography-mass spectrometry (LC-MS) using Agilent Technologies (model G6550A). […] Peptide 3 was injected in the C18 column equilibrated in a positive mode at a flow rate of 0.5 mL/min using water as a mobile phase.
As the interaction interface between RNAP β1β2 domain and the transcription factor (CarD^NTD and TRCF-RID) ([Westblade et al., 2010]; [Gulten and Sacchettini, 2013]) is relatively large, flat, solvent-exposed, and devoid of the binding pocket, it is challenging to design small molecule-based inhibitors. We therefore aimed to design the peptide-based RNAP β/transcription factor inhibitors by selecting the key residues involved in the interaction at the conserved PPI interface between RNAP β and transcription factor complex. The sequence and molecular weight of the designed peptides are mentioned in Table 1. PEP-FOLD3.1 ([Lamiable et al., 2016]), an online server, was used to predict the de novo structures of the designed peptides by running 100 simulations for each peptide. PEP-FOLD3.1 provides the information in the form of models which are generated by OPEP (Optimized Potential for Efficient structure Prediction) energy. […] The peptides were analyzed for their stability and solubility. […]

The nature of series [2]: Solubility in water and aqueous buffer. Format: physicochemical. The text has this:
As the interaction interface between RNAP β1β2 domain and the transcription factor (CarD^NTD and TRCF-RID) ([Westblade et al., 2010]; [Gulten and Sacchettini, 2013]) is relatively large, flat, solvent-exposed, and devoid of the binding pocket, it is challenging to design small molecule-based inhibitors. We therefore aimed to design the peptide-based RNAP β/transcription factor inhibitors by selecting the key residues involved in the interaction at the conserved PPI interface between RNAP β and transcription factor complex. The sequence and molecular weight of the designed peptides are mentioned in Table 1. PEP-FOLD3.1 ([Lamiable et al., 2016]), an online server, was used to predict the de novo structures of the designed peptides by running 100 simulations for each peptide. PEP-FOLD3.1 provides the information in the form of models which are generated by OPEP (Optimized Potential for Efficient structure Prediction) energy. The topmost model with the lowest OPEP score having minimum energy and maximum stability for each peptide was selected for further computational analysis. The designed peptides were 7–8 amino acids in length and were commercially synthesized. The peptides were analyzed for their stability and solubility. All the peptides were soluble in water as well as in aqueous buffer with a solubility of > 10 mM.

`CC[C@H](C)[C@H](NC(=O)[C@H](CCC(=O)O)NC(=O)CNC(=O)[C@@H](N)[C@@H](C)O)C(=O)N[C@@H](CCCCN)C(=O)N[C@@H](CO)C(=O)N[C@@H](CCC(N)=O)C(=O)N[C@H](C(=O)O)[C@@H](C)O` [Peptide 2] (H-TGEIKSQT-OH): in series [1], the Stability on storage result was “highly stable”. Moreover, in series [2], the “Solubility (in words)” value is on record as “soluble in aqueous buffer”.
